Assay results from patent US8314118B2, “Methods and compositions for treating dry eye” (priority 2009, dated 2012).

Assays:
Format in all cases: in vivo, Sprague-Dawley rats
[1] = test system: DB rats; assay: Schirmer test of tear production in STZ-diabetic (DB) rats after topical treatment
Method: (§1) Male Sprague-Dawley rats (˜245 g) were obtained from Charles River Laboratories (Wilmington, Mass.) and housed under standard laboratory conditions. All investigations conformed to the regulations of the ARVO, National Institutes of Health, and the guidelines of the Department of Comparative Medicine of The Pennsylvania State University.
(§2) Briefly, an intraperitoneal (i.p.) injection of 40 mg/kg streptozotocin (STZ, Sigma, St. Louis, Mo.) in ice-cold 0.5 mol/l citrate buffer (pH 4.5) was administered. […] Fifteen animals not receiving STZ, but injected with citrate buffer, were considered Normal.
Tear secretion was measured with Schirmer strips (Alcon Laboratories, Inc., Ft. Worth Tex.). […] The strip wetting length was measured to the nearest millimeter. Five minutes prior to administration of the Schirmer strip, animals received topical Proparacaine Hydrochloride Ophthalmic Solution 0.5% (Akorn, Inc., Buffalo Grove, Ill.).
(§3) Naltrexone hydrochloride (Sigma-Aldrich, Indianapolis, Ind.) was prepared in Vigamox (moxifloxacin hydrochloride ophthalmic solution, Alcon, Inc, Ft. Worth, Tex.) at a 10^−5 M concentration. NTX was given as a single drop (0.05 ml) to the central cornea of the right eye, with the lower eyelid held away from the eye to avoid overflow.
(§4) Insulin or vehicle was applied topically at 0800 hours.
(§5) For body weights and glucose measurements, Student two-tailed t-tests were utilized. With Schirmer tests and aesthesiometer measurements, one-way analysis of variance with Newman-Keuls post tests was employed because measurements were conducted on a random sample of two-thirds of the rats in each group.

[2] = test system: ocular surface; assay: Slit-lamp observations of the ocular surface; conditions: during and after NTX administration
Method: To examine general overall morphology and pathology (e.g., corneal edema, scarring), observations with a hand-held slit lamp (Zeiss HSO 10 Hand Slit Lamp, Dublin, Calif.) were conducted.

[3] = test system: DB rats; assay: Corneal sensitivity by aesthesiometer in STZ-diabetic (DB) rats after topical treatment; conditions: for reduction in corneal sensitivity from Normal animals: DB NTX group
Method: as §1, §2
Corneal sensitivity was determined by an aesthesiometer (Cachet and Bonnet-Aesthesiometer, Boca Raton, Fla.). The values (g/mm^2) were determined directly from the protocol (and conversion table) supplied by the manufacturer.
Measurements of sensitivity were conducted prior to the Schirmer test.
as §3, §4, §5

[4] = test system: Normal rats with Dry Eye; assay: Schirmer test of tear production in Normal rats with dry eye or "wet" eye
Method: FIG. 7. Tear production of Normal rats with Dry Eye (upper panel) and “Wet” eye (lower panel). Animals were measured at baseline, and given 1 drop of topical 10^−6 M naltrexone hydrochloride (NTX). The horizontal black line represents mean baseline for comparisons. Data are expressed as mean (SEM) for 7 rats per group at each time point except 48 hr wherein n=3 rats.
Tear secretion was measured with Schirmer strips (Alcon Laboratories, Inc., Ft. Worth Tex.). A standard 17 mm long Schirmer strip was inserted into the lower cul-de-sac for 1 min. The strip wetting length was measured to the nearest millimeter. Five minutes prior to administration of the Schirmer strip, animals received topical Proparacaine Hydrochloride Ophthalmic Solution 0.5% (Akorn, Inc., Buffalo Grove, Ill.). Testing began 1 hour after the last drop of NTX or vehicle was administered, and continued every 24 hours thereafter.
Sprague-Dawley rats, males of 15-22 weeks of age, were tested for dry eye and therapeutic effects of opioid antagonists. […] All of these measures used a test called the Schirmer Test, as described in Example 1 (the same test used for humans).

[5] = Normal rats with dry eye, one drop of NTX 10^−6 M

For `O=C1CC[C@@]2(O)[C@H]3Cc4ccc(O)c5c4[C@@]2(CCN3CC2CC2)[C@H]1O5` [NTX, 17-(cyclopropylmethyl)-4,5α-epoxy-3,14-dihydroxymorphinan-6-one], which “reduction of tear production from Normal animals” value ([1]; DB NTX group, 96 hours after termination of 1 or 5 days of NTX q.i.d.) is on record?
Its value is 22-59%.

And the “time to restoration of tear secretion” value ([1]; DB rats, 1 drop of topical NTX 10^−5 M in Vigamox)?
The value was at most 1 h.

What about the “time for which Schirmer scores were comparable to Normal rats” value ([1]; DB rats, NTX q.i.d. for 1 or 5 days, from 1 hour after termination of drug exposure) of the same molecule?
The value was “at least 3 days”.

What about the “time for which tear production was similar to Normal animals” value ([1]; DB rats, after 1 drop of NTX) of the same molecule?
The value was “at least 48 hours”.

And the “duration of therapeutic effect” value ([1]; four drops (10^−6 M) over a twelve-hour period)?
Its value is “at least 72 hours”.

And the “duration of effect on dry eye” value ([1]; only one daily topical application)?
The value was “more than 2 days”.

What about the “abnormalities of the ocular surface on slit-lamp examination” value [2] of the same molecule?
The value was “did not reveal any abnormalities”.

And the “reduction in corneal sensitivity from Normal animals” value (“reduction in corneal sensitivity” for short) ([3]; 120 hours after termination of 1 day of NTX q.i.d.)?
Its value is 1.8 fold.

What about the “reduction in corneal sensitivity” value ([3]; 192 hours after termination of 5 day NTX q.i.d.) of the same molecule?
The value was 1.9 fold.

What about the “reduction in corneal sensitivity” value ([3]; 216 hours after termination of 5 day NTX q.i.d.) of the same molecule?
The value was 1.7 fold.

What about the “time for which corneal sensitivity stayed comparable to Normal” value ([3]; DB rats, 1 drop of NTX, entire period of the experiment) of the same molecule?
Its value is 96 h.

And the “time to restoration of corneal sensitivity” value ([3]; DB rats, 1 drop of topical NTX)?
Its value is at most 1 h.

What about the “time for which corneal sensitivity scores were comparable to Normal rats” value ([3]; DB rats, NTX q.i.d. for 1 or 5 days, from 1 h after termination of drug exposure) of the same molecule?
The value was “at least 4 days”.

And the “change in moisture of animals with "wet" eye” value ([4]; Normal rats with "wet" eye, one drop of NTX)?
Its value is “no change in moisture”.

What about the “persistence of "wet" eye” value [4, 5] of the same molecule?
The value was “maintained at 24 and 48 hr”.

And the “time of return to dry eye” value [4, 5]?
The value was at most 72 h.

What about the “time to reversal of dry eye” value ([4]; Normal rats with dry eye, one drop of NTX 10^−6 M in VIGAMOX) of the same molecule?
Its value is “within an hour”.

And the “duration of therapeutic effect” value ([4]; one to two drops (10^−6 M))?
Its value is 48 h.

What about the “time to reversal of dry eye conditions” value ([4]; one to two drops (10^−6 M)) of the same molecule?
The value was “within an hour or so”.

“INS: Bovine insulin (Sigma-Aldrich) prepared in Vigamox, utilized at a concentration of 1 U” was tested. Which “decrease of Schirmer score from Normal rats” value ([1]; DB INS group, at 1, 24 and 48 hour time points) did it give?
Its value is 35-58%.

What about the “effect on tear production” value ([1]; DB rats, 1 drop of topical INS (1 U)) of the same molecule?
Its value is “no effect”.

And the “corneal sensitivity compared with Normal animals” value ([3]; DB rats, 1 drop of topical INS, 1, 24 and 48 h)?
Its value is “did not differ from the Normal animals”.
